ChEMBL document CHEMBL3769330, “Synthesis of pyrimido[4,5-c]azepine- and pyrimido[4,5-c]oxepine-based γ-secretase modulators” (Bioorg Med Chem Lett, 2016)
Calls of active or inactive are those of the source. The calls are words filed in the database; no cut-off is given here.

Columns and labels:
Gamma-secretase = experiment: Modulation of gamma-secretase activity (unknown origin) assessed as amyloid-beta(1-42) production by ELISA; assay type: protein-complex assay, Homo sapiens
Rattus norvegicus = experiment: Reduction of amyloid-beta peptides level in rat brain at 30 mg/kg, po; assay type: functional, organism-based

## COc1cc(Nc2nc3c(c(N(C)C)n2)C=CCN=C3c2ccccc2)ccc1-n1cnc(Cl)c1
Gamma-secretase
  IC50: 21 nM
Rattus norvegicus
  inhibition: Active

## CNc1nc(Nc2ccc(-n3cnc(Cl)c3)c(OC)c2)nc2c1C=CCN=C2c1ccccc1
Gamma-secretase
  IC50: 5 nM
Rattus norvegicus
  inhibition: Active

## COc1cc(Nc2nc3c(c(N(C)C)n2)C=CCOC3c2ccccc2)ccc1-n1cnc(Cl)c1 (stereo unspecified)
Gamma-secretase
  IC50: 56 nM

## COc1cc(Nc2nc3c(c(N(C)C)n2)C=CCNC3c2ccccc2)ccc1-n1cnc(Cl)c1 (stereo unspecified)
Gamma-secretase
  IC50: 36 nM
